Patent US20130303576A1, “ENZYME INHIBITORS” (priority 2009, published 2013)

What was measured:
U937 cells = experiment: U937 cell inhibition assay (WST-1 cell viability); type: cell-based; settings: for times more potent in the monocytic cell line (U937) than the non-monocytic cell line (Hut78): U937 versus Hut78; for potency in the U937 cellular assay compared with the parent compound: versus parent compound A
Protocol: (§1) Cancer cell lines (U937 and HUT) growing in log phase were harvested and seeded at 1000-2000 cells/well (100 μl final volume) into 96-well tissue culture plates. Following 24 h of growth cells were treated with Compound. Plates were then re-incubated for a further 72-98 h before a WST-1 cell viability assay was conducted according to the suppliers (Roche Applied Science) instructions.
(§2) Data were expressed as a percentage inhibition of the control, measured in the absence of inhibitor, as follows:
(§3) % inhibition=100−[(S^i/S^o)×100]
(§4) where S^i is the signal in the presence of inhibitor and S^o is the signal in the presence of DMSO.
(§5) Dose response curves were generated from 8 concentrations (top final concentration 10 μM, with 3-fold dilutions), using 6 replicates.
(§6) IC50 values were determined by non-linear regression analysis, after fitting the results to the equation for sigmoidal dose response with variable slope (% activity against log concentration of Compound), using Graphpad Prism software.
(§7) IC50 results were allocated to one of 3 ranges as follows: […]

HUT78 cells = experiment: HUT cell inhibition assay (WST-1 cell viability); type: cell-based; settings: read-out: Inhibition of proliferation in HUT78 cells (IC50 nM)
Protocol: as §1, §2, §3, §4, §5, §6, §7

CC(C)CC(C)(NCc1ccc(CCC(=O)NO)cc1)C(=O)OC1CCCC1 (racemic) [Example 16, Cyclopentyl N-{4-[3-(hydroxyamino)-3-oxopropyl]benzyl}-2-methyl-D,L-leucinate]
times more potent in the monocytic cell line (U937) than the non-monocytic cell line (Hut78) (U937 cells): 30 times | potency in the U937 cellular assay compared with the parent compound (U937 cells): significantly more potent | IC50 (HUT78 cells): 0.04 nM

O=C(CCc1ccc(CNC2(C(=O)OC3CCCC3)CCCC2)cc1)NO [Example 14, Cyclopentyl 1-({4-[3-hydroxyamino)-3-oxopropyl]benzyl}amino) cyclopentanecarboxylate]
times more potent in the monocytic cell line (U937) than the non-monocytic cell line (Hut78) (U937 cells): 30 times | potency in the U937 cellular assay compared with the parent compound (U937 cells): significantly more potent
